Assay results as given in paper PMC8123576 (International Journal of Molecular Sciences, 2021).

How the values were obtained:
A. flavus = assay: microbe, parasite or virus in culture; format: cell-based, Aspergillus flavus
[1] = tested on: aflatoxin accumulation by A. flavus; assay: microbe, parasite or virus in culture; format: cell-based, Aspergillus flavus
[2] = Aspergillus flavus, 100 µM, read-out: G.I. (%) (A. flavus growth inhibition)

| Molecule | G.I. (%) (A. flavus growth inhibition) (A. flavus; 100 µM) | A.I. (%) (aflatoxin accumulation inhibition) ([1]; 50 µM) | A.I. (%) (aflatoxin accumulation inhibition) ([1]; 100 µM) | G.I. (%) (A. flavus growth inhibition) (A. flavus; 50 µM) | also measured |
| --- | --- | --- | --- | --- | --- |
| O=C1c2ccccc2C(=O)c2cc(CO)ccc21 [2‐hydroxymethyl‐anthraquinone] | 62,0% | – | – | – | – |
| CCCCCC1=C(C)CCC1=NNC(N)=S [Dihydrojasmone thiosemicarbazone] | – | 51,5% | 63,2% | – | – |
| Zn(II) (E)‐1‐(4‐methoxyphenyl)‐1‐pentene‐3‐one‐bis 3‐thiosemicarbazonate | 89,0% | – | – | 86,0% | – |
| Zn(II) 2‐isopropylbenzaldehyde bisthiosemicarbazonate | – | 93,8% | 100% | – | – |
| CCCCCCCCC=NNC(N)=S [Nonanal thiosemicarbazone] | 100% | 91,0% | 100% | 95,0% | – |
| CC(=O)c1ccco1 [2-acetyl-furan] | – | – | – | – | activity of parent compounds on aflatoxin biosynthesis [1]: fundamentally inactive |
| Zn(II) Cuminaldehyde bisthiosemicarbazonate | 60,3% | 97,1% | 100% | 56,0% | – |
| Cu(II) 3,4,5‐trimethoxybenzaldehyde bisthiosemicarbazonate | 54,0% | – | 76,0% | – | – |
| Cc1ccc(S(=O)(=O)OCc2ccc3c(c2)C(=O)c2ccccc2C3=O)cc1 [Tosylate ‐2‐methyleneanthraquinone] | 87,0% | – | – | 66,0% | – |
| Cu(II) Dihydrojasmone bisthiosemicarbazonate | – | 66,0% | 80,0% | – | – |
| Cu(II) 2,4‐decadienal bisthiosemicarbazonate | 80,0% | – | – | 91,0% | – |
| Cu(II) benzaldehyde 4,4'‐dimethyl thiosemicarbazonate | – | – | 67,0% | – | – |
| Cu(II) Camphorquinone bisthiosemicarbazonate | – | – | 53,0% | – | – |
| Cu(II) 3,4‐dimethoxybenzaldehyde bis 4,4'‐dimethyl thiosemicarbazonate | – | 61,4% | 84,6% | – | – |
| Cu(I) chloroaqua flavone thiosemicarbazone | 79,0% | – | – | 60,0% | – |
| Cu(II) 2‐isopropylbenzaldehyde bisthiosemicarbazonate | – | 65,9% | 80,8% | – | – |
| Cu(II) 3‐phenylpropanal bisthiosemicarbazonate | 68,0% | – | – | 69,0% | – |
| CC(=O)c1cccs1 [2-acetyl-thiophene] | – | – | – | – | activity of parent compounds on aflatoxin biosynthesis [1]: fundamentally inactive |
| CCC=CCC1=C(C)CCC1=NNC(N)=S [Jasmone thiosemicarbazone] | – | 88,0% | 90,0% | – | – |
| NC(=S)NN=C(c1ccccc1)c1ccccc1 [Benzophenone thiosemicarbazone] | – | – | – | – | inhibition at 100 µM (A. flavus; [2]): 53% |
| CN(C)C(=S)NN=CC=Cc1ccccc1.CN(C)C(=S)NN=CC=Cc1ccccc1.[Zn+2] [Zn(II) Cinnamaldehyde bis 4,4‐dimethyl thiosemicarbazonate] | – | 75,0% | 100% | – | – |
| Cu(II)undecanal bisthiosemicarbazonate | 94,0% | 84,8% | 96,0% | 60,4% | – |
| CCC(/C=C/c1ccc(OC)cc1)=NNC(N)=S [(E)‐1‐(4‐methoxyphenyl)‐1‐pentene‐3‐one‐3‐thiosemicarbazone] | 74,0% | – | – | 62,0% | – |

| Molecule | G.I. (%) (A. flavus growth inhibition) (A. flavus; 100 µM) | A.I. (%) (aflatoxin accumulation inhibition) ([1]; 50 µM) | A.I. (%) (aflatoxin accumulation inhibition) ([1]; 100 µM) | G.I. (%) (A. flavus growth inhibition) (A. flavus; 50 µM) | also measured |
| --- | --- | --- | --- | --- | --- |
| Cu(II) syringaldehyde bisthiosemicarbazonate | 61,0% | – | 61,0% | – | – |
| Zn(II) Cinnamaldehyde bisthiosemicarbazonate | 76,0% | 99,0% | 100% | 56,0% | – |
| CCCCCC=CC=NNC(N)=S [2‐Octenal thiosemicarbazone] | 96,0% | – | – | 93,0% | – |
| Acetylthiophene bisthiosemicarbazone | 65,0% | – | – | – | – |
| NC(=S)NN=Cc1cccc(O)c1O [2,3‐dihydroxybenzaldehyde thiosemicarbazone] | – | – | – | 53,0% | – |
| NC(=S)NN=C1CCCCC1 [Cyclohexanone thiosemicarbazone] | 95,0% | – | – | 80,0% | – |
| Cu(II) 1‐isopropylbenzaldehyde bisthiosemicarbazonate | – | – | 73,5% | – | – |
| Zn(II) 1‐isopropylbenzaldehyde bisthiosemicarbazonate | – | 55,3% | 100% | – | – |
| NC(=S)NN=c1cc(-c2ccccc2)oc2ccccc12 [Flavone thiosemicarbazone] | 100% | – | – | 100% | – |
| Ni(II) perillaldehyde bisthiosemicarbazonate | – | 85,2% | 90,1% | – | – |
| Dicyclohexanone thiosemicarbazone | 99,00% | – | – | 90,0% | – |
| Cu(II) heptanal bisthiosemicarbazonate | – | 62,8% | 85,5% | – | – |
| Cu(II) cinnamaldehyde bisthiosemicarbazonate | – | – | – | 58,0% | – |
| Cu(II) 1‐(3‐methoxyphenyl)heptan‐1‐one bisthiosemicarbazonate | – | 82,5% | 95,2% | – | – |
| Cu(II) 4,7'‐dihydroxyflavone bisthiosemicarbazonate | 100% | – | – | 100% | – |
| CC(C)c1ccccc1C=NNC(N)=S [2‐isopropylbenzaldehyde thiosemicarbazone] | – | 67,0% | 97,0% | – | – |
| O=c1cc(-c2ccccc2)oc2ccccc12 [Flavone] | – | – | – | – | inhibition at 50 µM (A. flavus; Aspergillus flavus, 50 µM, read-out: G.I. (%) (A. flavus growth inhibition)): 66%; inhibition at 100 µM (A. flavus; [2]): 83% |
| NC(=S)NN=CCCc1ccccc1 [3‐Phenylpropanal thiosemicarbazone] | 107,0% | – | – | 100% | – |
| Cu(II) 2,3,4‐trimethoxybenzaldehyde bisthiosemicarbazonate | – | – | – | 55,0% | – |
| Zn(II) 1‐isopropylbenzaldehyde bis thiosemicarbazone diacetate | – | 69,3% | 81,9% | – | – |
| CC12CCC(C(=NNC(N)=S)C1=NNC(N)=S)C2(C)C (stereo not shown) [Camphorquinone bis thiosemicarbazone] | 58,0% | – | – | – | – |
| CC(C)=CCC/C(C)=C/C=N/NC(N)=S [Citral thiosemicarbazone] | 57,0% | – | – | – | – |
